Measurements reported in patent US20130317092A1 (priority 2007, published 2013).

What was measured:
[1] = test system: NFκB; assay: NFκB localisation by immunohistochemistry in mouse bone marrow macrophages; format: cell-based; conditions: LPS, LPS+ACh
[2] = test system: IL-6; assay: IL-6 production by peritoneal macrophages from FVB/N and TgR mice; format: cell-based, mouse; conditions: 100 μM ACh
[3] = test system: TNFα; assay: TNFα production by peritoneal macrophages from FVB/N and TgR mice; format: cell-based, mouse
[4] = test system: U937 cells; assay: Nitric oxide production (Griess) in U937 cells; format: cell-based, human; conditions: 24 h, 1 μg/ml LPS, 100 μM ACh
[5] = test system: IL-1β, TNFα; assay: IL-1β, TNFα production (ELISA) by bone marrow dendritic cells from FVB/N and TgR mice; format: cell-based, mouse; conditions: TgR dendritic cells, LPS and ACh
[6] = test system: IL-12; assay: IL-12 production by peritoneal macrophages from FVB/N and TgR mice; format: cell-based, mouse
[7] = test system: AChE-S mRNA; assay: AChE-S mRNA by QRT-PCR in transfected primary human macrophages; format: cell-based; conditions: primary human macrophages transfected with LNA-modified oligo
Experimental: (§1) Primary human macrophages obtained from donors using methods which are well known in the art.
(§2) anti132 is set forth in CG+ACC+ATG+GCT+GTA+GAC+TGT+TA (SEQ ID NO: 109), anti182 is set forth in 5′T+AgT+Tgg+CAA+gTC+TAg+AAC+CA3′(SEQ ID NO: 110), whereby LNA modification is marked as + before the modified nucleotide.
(§3) RT was performed using SuperScript III kit reagents (Invitrogen) as per kit instructions, and ABI-7900HT (Applied Biosystems) equipped with dedicated software (ver. 2) was used to amplify the resulting cDNA template (SYBR Green I RNA amplification kit, Roche). Triplicate values of each treatment were normalized to β-actin mRNA.

[8] = test system: Inducible Nitric Oxide Synthetase (iNOS); assay: iNOS by QRT-PCR in transfected primary human macrophages; format: cell-based; conditions: primary human macrophages transfected with LNA-modified oligo
Experimental: as §1, §3

[9] = test system: 3′UTR fragment of human AChE cDNA; assay: Dot blot hybridization of LNA-modified oligos with PCR-amplified AChE 3′UTR; format: binding; conditions: 5′-32P-labeled LNA-modified oligos
Experimental: The common AChE 3′-UTR sequence was obtained from AY750146 (all mRNA sequence beginning from stop codon). 3′-UTR of AChE was amplified by RT-PCR using Promega reagents and total RNA isolated with QIAGEN RNeasy kit from post-mortem human brain, with primers including XhoI, NotI restriction sites in 5′ and 3′ primer, respectively. Primer sequences used were: (5′): […], (3′) (SEQ ID NO: 111): […] (SEQ ID NO: 112). Annealing temperature of 57° C. was used. PCR product was purified with QIAGEN QiaQuick kit, size of fragment verified in agarose gel, spotted on a dry HyBond nylon membrane in 2 ul drops, cross-linked to the membrane using 1200 mJ UV burst, and baked for 1 hr at 80° C. Membrane was blocked for at least 2 hours in solution containing 50% deionized formamide, 5×SSPE, 0.5% SDS, 5×Denhardt's Solution at 50° C.; and hybridized o/night in same conditions with 5′-32P-labeled probes mimicking miRs wholly or with mismatches as indicated, washed 4 times at 37° C. in 3×SSPE, 5% SDS, 10×Denhardt's solution; once at 42° C. in 1×SSPE, 1% SDS; exposed over up to 3 days to a PhosphorImager (Molecular Dynamics/GE Healthcare) plate, and signal quantified using FujiFilm's ImageGauge 4 software.

[10] = test system: AChE-R mRNA; assay: AChE-R mRNA by QRT-PCR in transfected primary human macrophages; format: cell-based; conditions: primary human macrophages transfected with LNA-modified oligo
Experimental: as §1, §2, §3

[11] = test system: RAW 264.7 cells; assay: NO production of LPS-challenged RAW 264.7 cells transfected with miR mimics; format: cell-based, murine
Experimental: Murine RAW 264.7 macrophage-derived cell line known to express TLR4 and respond to endotoxin by production of pro-inflammatory mediators such as Nitric Oxide (NO), prostaglandins, and cytokines as ILE IL6, and TNFalpha were used (described in the preceding examples e.g., Examples 7 and 8). Cells were grown in 5 ml flasks in a humidified atmosphere in Dulbecco's modified Eagle's medium (DMEM, Biological Industries) supplemented with 10% fetal calf serum (FCS) and 2 mM L-glutamine at 37° C., 5% CO2.
Griess method was used to determine NO2 levels in medium in which macrophages had been cultured. 100 μl of each sample+100 μl of Griess reagent (1% sulfanilamide/0.1% naphthylethylenediamine dihydrochloride/2.5% H3PO4)—were incubated 10-20 min at room temperature. Read absorbance at 546 nm in micro-ELISA reader.
miR 132 and 182* (SEQ ID NOs: 54 and 93, respectively) were LNA modified (products are designated with SEQ ID NOs. 107 and 108, respectively). A locked nucleic acid (LNA), often referred to as inaccessible RNA, is a modified RNA. Ribose moiety of LNA nucleotide is modified with an extra bridge connecting 2′ and 4′ carbons. The bridge “locks” the ribose in 3′-endo structural conformation, which is often found in A-form of DNA or RNA. LNA nucleotides can be mixed with DNA or RNA bases in the oligonucleotide whenever desired. The locked ribose conformation enhances base stacking and backbone pre-organization.
electroporation and lipofection were used for cell transfection.
Oligos containing LNA modifications on every third base (Table 4) were obtained from Sigma-Proligo. Transfection was performed with Lipofectamine 2000 (Invitrogen, Carlsbad, Calif.) using 3 μg of oligo per sample. Briefly, cells were brought to 80%-90% confluence at the time of transfection. For each transfection sample, 3 μg oligo were diluted in 1 ml of RPMI-1640 while the lipofectamine reagent was diluted in 1 ml of RPMI-1640. After 5 minutes the diluted oligo and lipofectamine were combined and incubated for 20 minutes. This was added to the cells within the 75 ml flask, containing 6 ml RPMI complete+GM-CSF ([…] final oligo concentration). […]
To determine cell viability 40 μl of thiazolyl blue tetrazolium bromide (MTT) reagent (Sigma) at 5 mg/ml was added per sample well, incubated for 30 minutes at 37° C. Medium was removed, 400 μl of DMSO was added per well and absorbance read at 550 nm Griess method was used to determine NO2 levels in conditioned medium from macrophage cultures. […] Absorbance was read at 546 nm in a micro-ELISA reader. TNF-α, IL-6 levels were measured by Enzyme-Linked Immunosorbent Assay (ELISA) according to manufacturer's procedures (R&D Systems kits, MTA00, M6000B, respectively). All absorbance results were normalized using standard curves. […]

Molecule	relocation of NFκB from the cytoplasm to the nucleus [1]	LPS-induced IL6 increase on co-administration of ACh [2]	LPS-induced increase in TNFα on co-administration of ACh [3]	nitric oxide (NO) levels [4]	up-regulation of inflammatory cytokines with ACh [5]	IL-12 levels on co-administration of ACh with LPS ([6]; TgR macrophages)	IL-12 levels on co-administration of ACh with LPS ([6]; wild-type macrophages)	AChE-S mRNA levels [7]	iNOS expression [8]	binding to PCR-amplified AChE 3′UTR (dot blot signal) [9]	AChE-R mRNA levels [10]	activation of macrophage cell lines by LPS (NO production) after transfection ([11]; LPS-exposed RAW-264.7 cells transfected with oligo (Example 13))	endotoxin response (NO production) after transfection ([11]; RAW 264.7 cells transfected or electroporated, then endotoxin challenge (Example 11))
CC(=O)OCC[N+](C)(C)C.[Cl-] [ACh, Acetylcholine chloride]	significantly attenuated this effect	prevented this increase	significantly attenuated the LPS-induced increase in TNFα	reduced NO levels, and blocked the LPS-induced increases	not ACh-preventable	elevated in TgR macrophages	significantly lowered						
anti-132: LNA-modified reverse-complementary oligo CG+ACC+ATG+GCT+GTA+GAC+TGT+TA (CGACCATGGCTGTAGACTGTTA; LNA at 3, 6, 9, 12, 15, 18, 21, other sugars and backbone not given here)								increase in mRNA levels, albeit of the AChE-S variant alone	up-regulation of Inducible Nitric Oxide Synthetase (iNOS)				
miR-132 mimic: LNA-modified oligo mimicking miR-132: TA+ACA+GTC+TAC+AGC+CAT+GGT+CG (TAACAGTCTACAGCCATGGTCG; LNA at 3, 6, 9, 12, 15, 18, 21, other sugars and backbone not given here)								dramatic decline		significant binding to 20 ng doses of PCR product	dramatic decline	significantly attenuate the activation of macrophage cell lines by LPS	significantly attenuate endotoxin response
